How the values were obtained:
Type in all cases: in vivo
Alopecurus myosuroides [1] = experiment: Test Example 4: herbicidal effect by soil treatment (symbol J)
In short: (§1)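 Seeds were sown in sterilized diluvial soil, covered with about 1.5 cm of soil, and the soil surface was sprayed with a water-diluted emulsion of the compound at a predetermined rate. Plants grew in a greenhouse at 25° C. to 30° C.; effects were scored visually 3 weeks after application.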

Stellaria media = experiment: Test Example 4: herbicidal effect by soil treatment (symbol P)
In short: as §1

Setaria viridis = experiment: Test Example 4: herbicidal effect by soil treatment (symbol G)
In short: as §1

rice = experiment: Test Example 4: effect on crop by soil treatment (symbol b); details: for b: directly sowed rice plant, effect grade on crop: 320 g/ha
In short: (§2)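 Crop seeds, among them rice, wheat, beet and rapeseed, were sown in sterilized diluvial soil and covered with about 1.5 cm of soil. Boxes were kept in a greenhouse at 25° C. to 30° C. for plant growth.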

Avena fatua = experiment: Test Example 4: herbicidal effect by soil treatment (symbol I)
In short: as §1

[2] = tested on: Echinochloa crus-galli var. crus-galli; experiment: Test Example 5: herbicidal effect by foliage application, plastic box (symbol H); details: 320 g/ha, 3 weeks after application
In short: (§3)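 After sowing into sterilized diluvial soil and growing two weeks under glass at 25° C. to 30° C., seedlings receive a uniform foliar spray of diluted emulsion. Damage is judged visually three weeks on.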

rice plant = experiment: Test Example 5: effect on crop by foliage application, plastic box (symbol b); details: 320 g/ha, 3 weeks after application
In short: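 Crop and weed seeds sown in spots in sterilized diluvial soil in plastic boxes and covered with about 1.5 cm soil. Plants raised in a greenhouse at 25° C. to 30° C. for foliar application.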

Veronica persica = experiment: Test Example 4: herbicidal effect by soil treatment (symbol R)
In short: as §1

Alopecurus myosuroides [3] = experiment: Test Example 5: herbicidal effect by foliage application, plastic box (symbol J); details: 320 g/ha, 3 weeks after application
In short: as §3

Scirpus juncoides = experiment: Test Example 1: herbicidal activity, application before weed generation in submerged conditions (symbol B); details: application herbicide amount 320 g/ha
In short: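 Scores run 0 to 5 by herbicidal ratio, with 5 meaning 90% or more and 0 meaning 5% or lower, read 3 weeks after treatment. Compound was applied as a diluted emulsion to the water surface of submerged alluvial-soil pots on the day weed seeds were sown.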

Chenopodium album = experiment: Test Example 5: herbicidal effect by foliage application, plastic box (symbol O); details: 320 g/ha, 3 weeks after application
In short: as §3

Apera spica-venti = experiment: Test Example 4: herbicidal effect by soil treatment (symbol L)
In short: as §1

Abutilon theophrasti = experiment: Test Example 4: herbicidal effect by soil treatment (symbol M)
In short: as §1

Monochoria vaginalis = experiment: Test Example 2: herbicidal activity, application during weed generation in submerged conditions (symbol C); details: Table 23; application herbicide amount 320 g/ha; grade 0-5 by criteria of Test Example 1
In short: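 Seeds sown in flooded alluvial soil (4 cm water) were grown in a 25-30° C greenhouse. At the one- to two-leaf stage, diluted emulsion of compound was applied to the water surface at a predetermined rate. Effect was scored 3 weeks later.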

wheat = experiment: Test Example 4: effect on crop by soil treatment (symbol e); details: for e: wheat, effect grade on crop: 320 g/ha
In short: as §2

soybean = experiment: Test Example 4: effect on crop by soil treatment (symbol d); details: for d: soybean, effect grade on crop: 320 g/ha
In short: as §2

Digitaria ciliaris = experiment: Test Example 5: herbicidal effect by foliage application, plastic box (symbol F); details: 320 g/ha, 3 weeks after application
In short: as §3

[4] = application herbicide amount 320 g/ha

SMILES | H: Echinochloa crus-galli var. crus-galli, herbicidal effect grade [2] | b: directly sowed rice plant, effect on crop grade (rice plant) | J: Alopecurus myosuroides, herbicidal effect grade (Alopecurus myosuroides [3]) | B (Scirpus juncoides) herbicidal effect grade (Scirpus juncoides) | O: Chenopodium album, herbicidal effect grade (Chenopodium album) | Herbicidal effect grade, C: Monochoria vaginalis (Monochoria vaginalis) | F: Digitaria ciliaris, herbicidal effect grade (Digitaria ciliaris) | J: Alopecurus myosuroides, herbicidal effect grade (Alopecurus myosuroides [1]; 320 g/ha) | P: Stellaria media, herbicidal effect grade (Stellaria media; 320 g/ha) | G: Setaria viridis, herbicidal effect grade (Setaria viridis; 320 g/ha) | b: directly sowed rice plant, effect grade on crop (rice) | I: Avena fatua, herbicidal effect grade (Avena fatua; 320 g/ha) | H: Echinochloa crus-galli var. crus-galli, herbicidal effect (criteria 0-5) [2] | b: directly sowed rice plant, effect on crop (criteria 0-5) (rice plant) | R: Veronica persica, herbicidal effect grade (Veronica persica; 320 g/ha) | J: Alopecurus myosuroides, herbicidal effect (criteria 0-5) (Alopecurus myosuroides [3]) | Herbicidal effect grade, B: Scirpus juncoides (Scirpus juncoides) | O: Chenopodium album, herbicidal effect (criteria 0-5) (Chenopodium album) | L: Apera spica-venti, herbicidal effect grade (Apera spica-venti; 320 g/ha) | M: Abutilon theophrasti, herbicidal effect grade (Abutilon theophrasti; 320 g/ha) | also measured
CC(CC1CC(OC(=O)COc2ccccc2)=C(c2c(C)cc(-n3cc(Cl)cn3)cc2C)C1=O)=NOCC(F)(F)F (centres unmarked) [9-012] | 5 (Herbicidal ratio of 90% or more (almost completely withered)) | 5 (Herbicidal ratio of 90% or more (almost completely withered)) | 5 (Herbicidal ratio of 90% or more (almost completely withered)) | 4 (Herbicidal ratio of 70% or higher and lower than 90%) | 2 (Herbicidal ratio of 20% or higher and lower than 40%) | 2 (Herbicidal ratio of 20% or higher and lower than 40%) | 5 (Herbicidal ratio of 90% or more (almost completely withered)) | – | – | – | – | – | – | – | – | – | – | – | – | – | Herbicidal effect grade, J: Alopecurus myosuroides (Alopecurus myosuroides [1]; [4]): 5 (Herbicidal ratio of 90% or more (almost completely withered)); Herbicidal effect grade, P: Stellaria media (Stellaria media; [4]): 0 (Herbicidal ratio of 5% or lower (almost no effect)); Herbicidal effect grade, G: Setaria viridis (Setaria viridis; [4]): 5 (Herbicidal ratio of 90% or more (almost completely withered)); Effect on crop grade, b: directly sowed rice plant (rice; [4]): 5 (Herbicidal ratio of 90% or more (almost completely withered)); Herbicidal effect grade, I: Avena fatua (Avena fatua; [4]): 0 (Herbicidal ratio of 5% or lower (almost no effect)); Herbicidal effect grade, R: Veronica persica (Veronica persica; [4]): 2 (Herbicidal ratio of 20% or higher and lower than 40%); Herbicidal effect grade, L: Apera spica-venti (Apera spica-venti; [4]): 5 (Herbicidal ratio of 90% or more (almost completely withered)); Herbicidal effect grade, M: Abutilon theophrasti (Abutilon theophrasti; [4]): 0 (Herbicidal ratio of 5% or lower (almost no effect)); Effect on crop grade, e: wheat (wheat; [4]): 0 (Herbicidal ratio of 5% or lower (almost no effect)); Effect on crop grade, d: soybean (soybean; [4]): 0 (Herbicidal ratio of 5% or lower (almost no effect))
COc1cc(Br)cc(C)c1C1=C(O)CC(CC(=O)C2CC2)C1=O (racemic) [14-001] | 5 (Herbicidal ratio of 90% or more (almost completely withered)) | 5 (Herbicidal ratio of 90% or more (almost completely withered)) | 5 (Herbicidal ratio of 90% or more (almost completely withered)) | 3 (Herbicidal ratio of 40% or higher and lower than 70%) | 0 (Herbicidal ratio of 5% or lower (almost no effect)) | 1 (Herbicidal ratio of 5% or higher and lower than 20%) | 5 (Herbicidal ratio of 90% or more (almost completely withered)) | – | – | – | – | – | – | – | – | – | – | – | – | – | J: Alopecurus myosuroides, herbicidal effect grade (Alopecurus myosuroides [1]; [4]): 5 (Herbicidal ratio of 90% or more (almost completely withered)); P: Stellaria media, herbicidal effect grade (Stellaria media; [4]): 0 (Herbicidal ratio of 5% or lower (almost no effect)); G: Setaria viridis, herbicidal effect grade (Setaria viridis; [4]): 5 (Herbicidal ratio of 90% or more (almost completely withered)); b: directly sowed rice plant, effect on crop grade (rice; [4]): 5 (Herbicidal ratio of 90% or more (almost completely withered)); I: Avena fatua, herbicidal effect grade (Avena fatua; [4]): 5 (Herbicidal ratio of 90% or more (almost completely withered)); R: Veronica persica, herbicidal effect grade (Veronica persica; [4]): 0 (Herbicidal ratio of 5% or lower (almost no effect)); L: Apera spica-venti, herbicidal effect grade (Apera spica-venti; [4]): 5 (Herbicidal ratio of 90% or more (almost completely withered)); M: Abutilon theophrasti, herbicidal effect grade (Abutilon theophrasti; [4]): 0 (Herbicidal ratio of 5% or lower (almost no effect)); e: wheat, effect on crop grade (wheat; [4]): 0 (Herbicidal ratio of 5% or lower (almost no effect)); d: soybean, effect on crop grade (soybean; [4]): 0 (Herbicidal ratio of 5% or lower (almost no effect))
CON=C(CC1CC(O)=C(c2c(C)cc(C)cc2C)C1=O)C(F)(F)F (centres unmarked) [1-097] | – | – | – | – | – | 0 (Herbicidal ratio of 5% or lower (almost no effect)) | – | 2 (Herbicidal ratio of 20% or higher and lower than 40%) | 0 (Herbicidal ratio of 5% or lower (almost no effect)) | 2 (Herbicidal ratio of 20% or higher and lower than 40%) | 2 (Herbicidal ratio of 20% or higher and lower than 40%) | 1 (Herbicidal ratio of 5% or higher and lower than 20%) | 5 (Herbicidal ratio of 90% or more (almost completely withered)) | 5 (Herbicidal ratio of 90% or more (almost completely withered)) | 0 (Herbicidal ratio of 5% or lower (almost no effect)) | 5 (Herbicidal ratio of 90% or more (almost completely withered)) | 0 (Herbicidal ratio of 5% or lower (almost no effect)) | 1 (Herbicidal ratio of 5% or higher and lower than 20%) | 0 (Herbicidal ratio of 5% or lower (almost no effect)) | 0 (Herbicidal ratio of 5% or lower (almost no effect)) | e: wheat, effect grade on crop (wheat): 0 (Herbicidal ratio of 5% or lower (almost no effect)); d: soybean, effect grade on crop (soybean): 0 (Herbicidal ratio of 5% or lower (almost no effect)); F: Digitaria ciliaris, herbicidal effect (criteria 0-5) (Digitaria ciliaris): 5 (Herbicidal ratio of 90% or more (almost completely withered))
CC(CC1CC(O)=C(c2c(C)cc(C)cc2C)C1=O)=NOCc1cccc(C(F)(F)F)c1 (centres unmarked) [1-117] | – | – | – | – | – | 3 (Herbicidal ratio of 40% or higher and lower than 70%) | – | 4 (Herbicidal ratio of 70% or higher and lower than 90%) | 0 (Herbicidal ratio of 5% or lower (almost no effect)) | 5 (Herbicidal ratio of 90% or more (almost completely withered)) | 5 (Herbicidal ratio of 90% or more (almost completely withered)) | 0 (Herbicidal ratio of 5% or lower (almost no effect)) | 5 (Herbicidal ratio of 90% or more (almost completely withered)) | 5 (Herbicidal ratio of 90% or more (almost completely withered)) | 0 (Herbicidal ratio of 5% or lower (almost no effect)) | 5 (Herbicidal ratio of 90% or more (almost completely withered)) | 5 (Herbicidal ratio of 90% or more (almost completely withered)) | 0 (Herbicidal ratio of 5% or lower (almost no effect)) | 5 (Herbicidal ratio of 90% or more (almost completely withered)) | 0 (Herbicidal ratio of 5% or lower (almost no effect)) | e: wheat, effect grade on crop (wheat): 0 (Herbicidal ratio of 5% or lower (almost no effect)); d: soybean, effect grade on crop (soybean): 0 (Herbicidal ratio of 5% or lower (almost no effect)); F: Digitaria ciliaris, herbicidal effect (criteria 0-5) (Digitaria ciliaris): 5 (Herbicidal ratio of 90% or more (almost completely withered))

Reference: patent US11000033B2, “Ketone or oxime compound, and herbicide” (NISSAN CHEMICAL CORPORATION, priority 2014, dated 2021)
